Our source for the Ki values is patent US11014911B2, “CDK2 inhibitors” (Pfizer Inc., priority 2019, dated 2021).

This test concerns the target CDK2/Cyclin E1 full length (Homo sapiens (Human), UniProt P24941). Description: CDK2/Cyclin E1 full length mobility shift assay. It counts as biochemical.
For `COc1cnc(CC(=O)Nc2cc([C@H]3CC[C@@H](OC(=O)NC4(CC(F)(F)F)CC4)C3)[nH]n2)cn1` [Example 456, (1R,3S)-3-(3-{[(5-methoxypyrazin-2-yl)acetyl]amino}-1H-pyrazol-5-yl)cyclopentyl [1-2,2,2-trifluoroethyl)cyclopropyl] carbamate], the Ki is 0.38 nM.

As to `COCc1cc(C(=O)Nc2cc([C@H]3CC[C@@H](OC(=O)NC4(CC(F)(F)F)CC4)C3)[nH]n2)n(C)n1` [Example 457, (1R,3S)-3-[3-({[3-(methoxymethyl)-1-methyl-1H-pyrazol-5-yl]carbonyl}amino)-1H-pyrazol-5-yl]cyclopentyl [1-(2,2,2-trifluoroethyl)cyclopropyl] carbamate], the Ki is 0.38 nM.

Take `O=C(Cc1ccno1)Nc1cc([C@H]2CC[C@@H](OC(=O)NC3CCC3)C2)[nH]n1` [Example 458, (1R,3S)-3-{3-[(1,2-oxazol-5-ylacetyl)amino]-1H-pyrazol-5-yl}cyclopentyl cyclobutylcarbamate]: the Ki stood at 3.07 nM.

In the case of `Cc1nnc(CC(=O)Nc2cc([C@H]3CC[C@@H](OC(=O)NC4(C)CCC4)C3)[nH]n2)o1` [Example 459, (1R,3S)-3-(3-{[(5-methyl-1,3,4-oxadiazol-2-yl)acetyl]amino}-1H-pyrazol-5-yl)cyclopentyl (1-methylcyclobutyl)carbamate], the inhibition constant (Ki) turned out to be 0.32 nM.

Turning to `C[C@H]1CCC[C@H]1NC(=O)O[C@@H]1CC[C@H](c2cc(NC(=O)Cc3ccno3)n[nH]2)C1` [Example 461, (1R,3S)-3-{3-[(1,2-oxazol-5-ylacetyl)amino]-1H-pyrazol-5-yl}cyclopentyl [(1R,2S)-2-methylcyclopentyl]carbamate], the Ki turned out to be 1.75 nM.

As to `Cc1ncc(CC(=O)Nc2cc([C@H]3CC[C@@H](OC(=O)N[C@@H]4CCC[C@@H]4C)C3)[nH]n2)o1` [Example 462, (1R,3S)-3-(3-{[(2-methyl-1,3-oxazol-5-yl)acetyl]amino}-1H-pyrazol-5-yl)cyclopentyl [(1R,2S)-2-methylcyclopentyl]carbamate], the Ki worked out at 1.74 nM.

`Cc1ncc(CC(=O)Nc2cc([C@H]3CC[C@@H](OC(=O)N[C@H]4CCC[C@H]4C)C3)[nH]n2)s1` [Example 464, (1R,3S)-3-(3-{[(2-methyl-1,3-thiazol-5-yl)acetyl]amino}-1H-pyrazol-5-yl)cyclopentyl [(1S,2R)-2-methylcyclopentyl]carbamate]: the inhibition constant (Ki) was 2.63 nM.

Turning to `O=C(Cc1ccno1)Nc1cc([C@H]2CC[C@@H](OC(=O)NCC3CC3)C2)[nH]n1` [Example 465, (1R,3S)-3-{3-[(1,2-oxazol-5-ylacetyl)amino]-1H-pyrazol-5-yl}cyclopentyl (cyclopropylmethyl)carbamate], the Ki is 1.95 nM.

As for `C[C@H](NC(=O)O[C@@H]1CC[C@H](c2cc(NC(=O)Cc3ccon3)n[nH]2)C1)C1CC1` [Example 466, (1R,3S)-3-{3-[(1,2-oxazol-3-ylacetyl)amino]-1H-pyrazol-5-yl}cyclopentyl [(1S)-1-cyclopropylethyl]carbamate], the Ki was determined as 1.02 nM.

For the molecule `C[C@@H](NC(=O)O[C@@H]1CC[C@H](c2cc(NC(=O)Cc3ccon3)n[nH]2)C1)C1CC1` [Example 467, (1R,3S)-3-{3-[(1,2-oxazol-3-ylacetyl)amino]-1H-pyrazol-5-yl}cyclopentyl [(1R)-1-cyclopropylethyl]carbamate], the inhibitory constant (Ki) was 1.2 nM.

On to `Cc1cc(CC(=O)Nc2cc([C@H]3CC[C@@H](OC(=O)N[C@@H](C)C4CC4)C3)[nH]n2)on1` [Example 468, (1R,3S)-3-(3-{[(3-methyl-1,2-oxazol-5-yl)acetyl]amino}-1H-pyrazol-5-yl)cyclopentyl [(1S)-1-cyclopropylethyl]carbamate], for which the Ki is 0.35 nM.

Take `Cc1cc(CC(=O)Nc2cc([C@H]3CC[C@@H](OC(=O)N[C@H](C)C4CC4)C3)[nH]n2)on1` [Example 469, (1R,3S)-3-(3-{[(3-methyl-1,2-oxazol-5-yl)acetyl]amino}-1H-pyrazol-5-yl)cyclopentyl [(1R)-1-cyclopropylethyl]carbamate]: the Ki stood at 0.31 nM.

As for `Cc1cnc(CC(=O)Nc2cc([C@H]3CC[C@@H](OC(=O)N[C@@H](C)C4CC4)C3)[nH]n2)cn1` [Example 470, (1R,3S)-3-(3-{[(5-methylpyrazin-2-yl)acetyl]amino}-1H-pyrazol-5-yl)cyclopentyl [(1S)-1-cyclopropylethyl]carbamate], the Ki was 0.83 nM.

In the case of `Cc1cnc(CC(=O)Nc2cc([C@H]3CC[C@@H](OC(=O)N[C@H](C)C4CC4)C3)[nH]n2)cn1` [Example 471, (1R,3S)-3-(3-{[(5-methylpyrazin-2-yl)acetyl]amino}-1H-pyrazol-5-yl)cyclopentyl [(1R)-1-cyclopropylethyl]carbamate], the Ki amounted to 1.43 nM.

With `COc1cnc(CC(=O)Nc2cc([C@H]3CC[C@@H](OC(=O)N[C@H](C)C4CC4)C3)[nH]n2)cn1` [Example 472, (1R,3S)-3-(3-{[(5-methoxypyrazin-2-yl)acetyl]amino}-1H-pyrazol-5-yl)cyclopentyl [(1R)-1-cyclopropylethyl]carbamate], the Ki turned out to be 1.17 nM.

Consider `CC1(NC(=O)O[C@@H]2CC[C@H](c3cc(NC(=O)CC4COc5ccccc54)n[nH]3)C2)CCOC1` (stereo partly drawn) [Example 491, (1R,3S)-3-(3-{[(3ξ)-2,3-dihydro-1-benzofuran-3-ylacetyl]amino}-1H-pyrazol-5-yl)cyclopentyl [(3ξ)-3-methyltetrahydrofuran-3-yl]carbamate], for which the Ki worked out at 3.87 nM.

As for `COc1cc(CC(=O)Nc2cc([C@@H]3CC[C@H](OC(=O)NC[C@@H]4CCCO4)C3)[nH]n2)ccn1` [Example 497, (1S,3R)-3-(3-{[(2-methoxypyridin-4-yl)acetyl]amino}-1H-pyrazol-5-yl)cyclopentyl [(2S)-tetrahydrofuran-2-ylmethyl]carbamate], the inhibition constant Ki was found to be 4.38 nM.

As to `O=C(Cc1cc(F)cc(F)c1)Nc1cc([C@@H]2CC[C@H](OC(=O)NC[C@H]3CCCO3)C2)[nH]n1` [Example 498, (1S,3R)-3-(3-{[(3,5-difluorophenyl)acetyl]amino}-1H-pyrazol-5-yl)cyclopentyl [(2R)-tetrahydrofuran-2-ylmethyl]carbamate], the Ki stood at 4.28 nM.

As to `O=C(Cc1cc(F)cc(F)c1)Nc1cc([C@@H]2CC[C@H](OC(=O)NC[C@@H]3CCCO3)C2)[nH]n1` [Example 499, (1S,3R)-3-(3-{[(3,5-difluorophenyl)acetyl]amino}-1H-pyrazol-5-yl)cyclopentyl [(2S)-tetrahydrofuran-2-ylmethyl]carbamate], the inhibitory constant (Ki) came to 2.55 nM.

With `Cc1ncc(CC(=O)Nc2cc([C@@H]3CC[C@H](OC(=O)NC4CCOCC4)C3)[nH]n2)s1` [Example 500, (1S,3R)-3-(3-{[(2-methyl-1,3-thiazol-5-yl)acetyl]amino}-1H-pyrazol-5-yl)cyclopentyl tetrahydro-2H-pyran-4-ylcarbamate], the Ki came out at 2.36 nM.

Take `COc1ccc(CC(=O)Nc2cc([C@H]3CC[C@@H](OC(=O)NC4CCOCC4)C3)[nH]n2)cc1` [Example 502, (1R,3S)-3-(3-{[(4-methoxyphenyl)acetyl]amino}-1H-pyrazol-5-yl)cyclopentyl tetrahydro-2H-pyran-4-ylcarbamate]: the Ki was found to be 3.71 nM.

For `COc1cc(CC(=O)Nc2cc([C@@H]3CC[C@H](OC(=O)NC4CCOCC4)C3)[nH]n2)ccn1` [Example 503, (1S,3R)-3-(3-{[(2-methoxypyridin-4-yl)acetyl]amino}-1H-pyrazol-5-yl)cyclopentyl tetrahydro-2H-pyran-4-ylcarbamate], the Ki stood at 2.13 nM.

`COc1cc(CC(=O)Nc2cc([C@H]3CC[C@@H](OC(=O)NC4CCOCC4)C3)[nH]n2)ccn1` [Example 504, (1R,3S)-3-(3-{[(2-methoxypyridin-4-yl)acetyl]amino}-1H-pyrazol-5-yl)cyclopentyl tetrahydro-2H-pyran-4-ylcarbamate]: the Ki is 3.64 nM.

Consider `O=C(Cc1cc(F)cc(F)c1)Nc1cc([C@H]2CC[C@@H](OC(=O)NC3CCOCC3)C2)[nH]n1` [Example 505, (1R,3S)-3-(3-{[(3,5-difluorophenyl)acetyl]amino}-1H-pyrazol-5-yl)cyclopentyl tetrahydro-2H-pyran-4-ylcarbamate], for which the inhibition constant Ki came out at 1.6 nM.

In the case of `Cn1ccc(CC(=O)Nc2cc([C@H]3CC[C@@H](OC(=O)NC4(C)CCOCC4)C3)[nH]n2)n1` [Example 507, (1R,3S)-3-(3-{[(1-methyl-1H-pyrazol-3-yl)acetyl]amino}-1H-pyrazol-5-yl)cyclopentyl (4-methyltetrahydro-2H-pyran-4-yl)carbamate], the Ki worked out at 3.69 nM.

As for `Cc1cnc(CC(=O)Nc2cc([C@H]3CC[C@@H](OC(=O)NC4(C)CCOCC4)C3)[nH]n2)o1` [Example 508, (1R,3S)-3-(3-{[(5-methyl-1,3-oxazol-2-yl)acetyl]amino}-1H-pyrazol-5-yl)cyclopentyl (4-methyltetrahydro-2H-pyran-4-yl)carbamate], the Ki is 1.46 nM.

Turning to `COc1cc(CC(=O)Nc2cc([C@@H]3CC[C@H](OC(=O)NCC4CCOCC4)C3)[nH]n2)ccn1` [Example 512, (1S,3R)-3-(3-{[(2-methoxypyridin-4-yl)acetyl]amino}-1H-pyrazol-5-yl)cyclopentyl (tetrahydro-2H-pyran-4-ylmethyl)carbamate], the Ki stood at 3.2 nM.

As to `O=C(Cc1cc(F)cc(F)c1)Nc1cc([C@@H]2CC[C@H](OC(=O)NCC3CCOCC3)C2)[nH]n1` [Example 513, (1S,3R)-3-(3-{[(3,5-difluorophenyl)acetyl]amino}-1H-pyrazol-5-yl)cyclopentyl (tetrahydro-2H-pyran-4-ylmethyl)carbamate], the Ki stood at 3.19 nM.

For the molecule `O=C(Cc1ccc(C(F)(F)F)nc1)Nc1cc([C@@H]2CC[C@H](OC(=O)NCC3CCOCC3)C2)[nH]n1` [Example 514, (1S,3R)-3-[3-({[6-(trifluoromethyl)pyridin-3-yl]acetyl}amino)-1H-pyrazol-5-yl]cyclopentyl (tetrahydro-2H-pyran-4-ylmethyl)carbamate], the Ki was 2.78 nM.

On to `COC[C@H](C)NC(=O)O[C@@H]1CC[C@H](c2cc(NC(=O)Cc3ccccc3)[nH]n2)C1` [Example 517, (1R,3S)-3-{5-[(phenylacetyl)amino]-1H-pyrazol-3-yl}cyclopentyl [(2S)-1-methoxypropan-2-yl]carbamate], for which the Ki is 1.29 nM.

One may read the Ki as the equilibrium dissociation constant of an inhibitor or competing ligand from its target.
